The values below come from US20240166664A1, “TRIHETEROCYCLIC COMPOUND, PREPARATION METHOD THEREFOR, AND APPLICATION THEREOF” (SHANGHAI APEIRON THERAPEUTICS COMPANY LIMITED, priority 2021, published 2024).

Where two headings read alike, the source gives them in different places. Bounds are passed on as bounds.

In one test the target is T1, PARP7 (Homo sapiens, UniProt Q7Z3E1).
T1 construct: purchased BPS 80527
T1 sequence (Q7Z3E1 1-657): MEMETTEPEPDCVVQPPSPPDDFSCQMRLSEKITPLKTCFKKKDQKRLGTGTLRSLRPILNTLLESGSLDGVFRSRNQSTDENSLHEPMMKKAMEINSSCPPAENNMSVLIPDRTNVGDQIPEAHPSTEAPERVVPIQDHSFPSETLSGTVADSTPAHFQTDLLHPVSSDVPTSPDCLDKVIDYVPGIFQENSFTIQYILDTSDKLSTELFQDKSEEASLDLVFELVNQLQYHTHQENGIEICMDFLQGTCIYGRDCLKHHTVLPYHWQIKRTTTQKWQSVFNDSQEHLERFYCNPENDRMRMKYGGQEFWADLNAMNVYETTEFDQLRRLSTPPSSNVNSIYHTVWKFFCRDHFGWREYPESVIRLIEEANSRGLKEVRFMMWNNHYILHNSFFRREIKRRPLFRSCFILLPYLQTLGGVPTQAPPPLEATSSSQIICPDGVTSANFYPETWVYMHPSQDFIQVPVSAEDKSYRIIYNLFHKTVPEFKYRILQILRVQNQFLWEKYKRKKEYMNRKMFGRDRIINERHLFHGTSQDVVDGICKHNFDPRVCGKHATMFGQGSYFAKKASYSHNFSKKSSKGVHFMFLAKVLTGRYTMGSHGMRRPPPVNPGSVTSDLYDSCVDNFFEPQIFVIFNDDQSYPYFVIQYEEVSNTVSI
Put plainly: Test of inhibitory activity against PARP7 enzyme (PARP7 FLAG-tag, Probe A, time-resolved fluorescence). Type of test: biochemical. The settings on record: PARP7 12 nM, Probe A 2 nM, 1 hr room temperature.

Another test relates to NCI-H1373 cells. Description: Cell proliferation inhibition assay (CTG method). It counts as cell-based, human. The settings on record: read-out: IC50 (nM) for NCI-H1373 cell viability.
[1] abbreviates: Homo sapiens, NCI-H1373, 144 h, NCI-H1373 cells, 6 days incubation, CTG method.
Where [2] appears, read: NCI-H1373 cells, 6 days incubation, CTG method.

For orientation: IC50 means the concentration needed to halve the response being measured. For the compound `C[C@@H](COCCC(=O)N1CCN2c3ncc(C(F)(F)F)cc3CC[C@H]2C1)Nc1cn[nH]c(=O)c1C(F)(F)F` (single isomer, unassigned) [Compound 45], the concentration for half-maximal inhibition (IC50) against PARP7 is below 0.01 µM; with NCI-H1373 cells (setting [1]) it was below 100 nM.
On the same counts, the results for `C[C@@H](COCCC(=O)N1CCN2c3ncc(C(F)(F)F)cc3CC[C@@H]2C1)Nc1cn[nH]c(=O)c1C(F)(F)F` (single isomer, unassigned) [Compound 46] are below 0.01 µM and 100 to 500 nM.
For `CC(COCC(O)C(=O)N1CCN2c3ncc(C(F)(F)F)cc3COCC2C1)Nc1cn[nH]c(=O)c1C(F)(F)F` (single isomer, unassigned) [Compound 55], in that order: below 0.01 µM and below 100 nM.
As to `CC(COCC(O)C(=O)N1CCN2c3ncc(C(F)(F)F)cc3COCC2C1)Nc1cn[nH]c(=O)c1C(F)(F)F` (single isomer, unassigned) [Compound 56], the IC50 on PARP7 was below 0.01 µM; in the test on NCI-H1373 cells (setting [2]), 100 to 500 nM.
For the compound `C[C@@H](COCCC(=O)N1CCN2c3ncc(C(F)(F)F)cc3C(F)(F)C[C@H]2C1)Nc1cn[nH]c(=O)c1C(F)(F)F` (single isomer, unassigned) [Compound 63], the half-inhibitory concentration (IC50) against PARP7 is below 0.01 µM; in the test with NCI-H1373 cells (setting [1]), 500 to 5000 nM.
For `C[C@@H](COCCC(=O)N1CCN2c3ncc(C(F)(F)F)cc3C(F)(F)C[C@@H]2C1)Nc1cn[nH]c(=O)c1C(F)(F)F` (single isomer, unassigned) [Compound 64], in that order: below 0.01 µM and 500 to 5000 nM.
Take `C[C@@H](COCCC(=O)N1CCN2c3ncc(C(F)(F)F)cc3NC(=O)CC2C1)Nc1cn[nH]c(=O)c1C(F)(F)F` (single isomer, unassigned) [Compound 84]: the values for the IC50 at PARP7 and with NCI-H1373 cells (setting [1]) were below 0.01 µM and above 5000 nM, respectively.
On the same counts, the results for `C[C@H](COCCC(=O)N1CCN2c3ncc(C(F)(F)F)cc3NCC[C@H]2C1)Nc1cn[nH]c(=O)c1C(F)(F)F` (stereo in doubt) [Compound 36, 5-(((R)-1-(3-oxo-3-((S)-3-(trifluoromethyl)-6,7,7a, 8,10,11-hexahydropyrazino[1,2-d]pyrido[3,2-b][1,4]diazepine-9(5H)-yl)propoxy)prop-2-yl)amino)-4-(trifluoromethyl)pyridazin-3(2H)-one] are below 0.01 µM and 500 to 5000 nM.
For `C[C@@H](COCCC(=O)N1CCN2c3ncc(C(F)(F)F)cc3OC[C@H]2C1)Nc1cn[nH]c(=O)c1C(F)(F)F` [Compound 1, 5-(((S)-1-(3-oxo-3-((R)-3-(trifluoromethyl)-6a, 7,9,10-tetrahydropyrazino[1,2-d]pyrido[3,2-b][1,4]oxazin-8(6H)-yl)propoxy)prop-2-yl)amino)-4-(trifluoromethyl)pyridazin-3(2H)-one], in that order: below 0.01 µM and below 100 nM.
On the same counts, the results for `C[C@@H](COCCC(=O)N1CCN2c3ncc(C(F)(F)F)cc3OC[C@@H]2C1)Nc1cn[nH]c(=O)c1C(F)(F)F` [Compound 2, 5-(((S)-1-(3-oxo-3-((S)-3-(trifluoromethyl)-6a, 7,9,10-tetrahydropyrazino[1,2-d]pyrido[3,2-b][1,4]oxazin-8(6H)-yl)propoxy)prop-2-yl)amino)-4-(trifluoromethyl)pyridazin-3(2H)-one] are below 0.01 µM and below 100 nM.
For the compound `C[C@@H](COCCC(=O)N1CCN2c3ncc(C(F)(F)F)cc3C(=O)OC[C@H]2C1)Nc1cn[nH]c(=O)c1C(F)(F)F` [Compound 3, (R)-9-(3-((S)-2-((6-oxo-5-(trifluoromethyl)-1,6-dihydropyridazin-4-yl)amino)propoxy)propionyl)-3-(trifluoromethyl)-7,7a, 8,9,10,11-hexahydro-5H-pyrazino[2,1-c]pyrido[2,3-e][1,4]oxazin-5-one], the IC50 was below 0.01 µM against PARP7 and above 5000 nM in the test on NCI-H1373 cells (setting [1]).
Take `C[C@@H](COCCC(=O)N1CCN2c3ncc(C(F)(F)F)cc3NC(=O)[C@H]2C1)Nc1cn[nH]c(=O)c1C(F)(F)F` [Compound 7, (R)-8-(3-((S)-2-((6-oxo-5-(trifluoromethyl)-1,6-dihydropyridazin-4-yl)amino)propoxy)propionyl)-3-(trifluoromethyl)-7,8,9,10-tetrahydro-5H-pyrazino[1,2-a]pyrido[3,2-e]pyrazin-6(6aH)-one]: in the test with NCI-H1373 cells (Homo sapiens, NCI-H1373, 144 h), the half-maximal inhibitory concentration (IC50) fell in the range of 500 to 5000 nM.
The same measure, in the same setting: to `C[C@@H](COCCC(=O)N1CCN2c3ncc(C(F)(F)F)cc3NC(=O)[C@@H]2C1)Nc1cn[nH]c(=O)c1C(F)(F)F` [Compound 8, (S)-8-(3-((S)-2-((6-oxo-5-(trifluoromethyl)-1,6-dihydropyridazin-4-yl)amino)propoxy)propionyl)-3-(trifluoromethyl)-7,8,9,10-tetrahydro-5H-pyrazino[1,2-a]pyrido[3,2-e]pyrazin-6(6aH)-one] belongs 100 to 500 nM.
Take `C[C@@H]1CN2c3ncc(C(F)(F)F)cc3OC[C@H]2CN1C(=O)CCOC[C@H](C)Nc1cn[nH]c(=O)c1C(F)(F)F` [Compound 24, 5-(((S)-1-(3-((6aR,9R)-9-methyl-3-(trifluoromethyl)-6a, 7,9,10-tetrahydropyrazino[1,2-d]pyrido[3,2-b][1,4]oxazin-8(6H)-yl)-3-oxypropoxy)prop-2-yl)amino)-4-(trifluoromethyl)pyridazin-3(2H)-one]: the half-maximal inhibitory concentration (IC50) in the test with NCI-H1373 cells (setting [1]) is 100 to 500 nM.
On to `C[C@@H](COCCC(=O)N1CCN2c3ncc(C(F)(F)F)cc3N(C)C(=O)[C@@H]2C1)Nc1cn[nH]c(=O)c1C(F)(F)F` [Compound 33, (S)-5-methyl-8-(3-((S)-2-((6-oxo-5-(trifluoromethyl)-1,6-dihydropyridazin-4-yl)amino)propoxy)propionyl)-3-(trifluoromethyl)-7,8,9,10-tetrahydro-5H-pyrazino[1,2-a]pyrido[3,2-e]pyrazin-6(6aH)-one], for which the concentration for half-maximal inhibition (IC50) in the test with NCI-H1373 cells (Homo sapiens, NCI-H1373, 144 h) is below 100 nM.
Still for that read-out and setting: to `[2H]C([2H])([2H])N1C(=O)[C@@H]2CN(C(=O)CCOC[C@H](C)Nc3cn[nH]c(=O)c3C(F)(F)F)CCN2c2ncc(C(F)(F)F)cc21` [Compound 39, (s)-5-(methyl-D3)-8-(3-((S)-2-((6-oxo-5-(trifluoromethyl)-1,6-dihydropyridazin-4-yl)amino)propoxy)propionyl)-3-(trifluoromethyl)-7,8,9,10-tetrahydro-5H-pyrazino[1,2-a]pyrido[3,2-e]pyrazino-6(6aH)-one] belongs below 100 nM.
Regarding `C[C@@H](COCCC(=O)N1CCN2c3ccc(C(F)(F)F)cc3N(C)C(=O)[C@@H]2C1)Nc1cn[nH]c(=O)c1C(F)(F)F` [Compound 49], in the test on NCI-H1373 cells (setting [1]), the IC50 was above 5000 nM.
Consider `C[C@@H](COCCC(=O)N1CCN2c3ncc(C(F)(F)F)cc3N(C)C(=O)[C@H]2C1)Nc1cn[nH]c(=O)c1C(F)(F)F` [Compound 54, (R)-5-methyl-8-(3-((S)-2-((6-oxo-5-(trifluoromethyl)-1,6-dihydropyridazin-4-yl)amino)propoxy)propionyl)-3-(trifluoromethyl)-7,8,9, 10-tetrahydro-5H-pyrazino[1,2-a]pyrido[3,2-e]pyrazin-6(6aH)-one], for which, in the test with NCI-H1373 cells (Homo sapiens, NCI-H1373, 144 h), the IC50 is below 100 nM.
For `CC(COCCC(=O)N1CCN2c3ncc(C(F)(F)F)cc3CN(C)C(=O)C2C1)Nc1cn[nH]c(=O)c1C(F)(F)F` [Compound 57, (R)-6-methyl-9-(3-((S)-2-((6-oxo-5-(trifluoromethyl)-1,6-dihydropyridazin-4-yl)amino)propoxy)propionyl)-3-(trifluoromethyl)-5,6,8,9, 10, 11-hexahydropyrazino[1,2-a]pyrido[3,2-f][1, 4]diazepan-7(7aH)-one], the half-maximal inhibitory concentration (IC50) in the test on NCI-H1373 cells (setting [1]) was in the range of 500 to 5000 nM.
For `C[C@@H](COCCC(=O)N1CCN2c3ncc(C(F)(F)F)c(C(F)F)c3OCC[C@H]2C1)Nc1cn[nH]c(=O)c1C(F)(F)F` [Compound 62, 5-(((S)-1-(3-((S)-4-(difluoromethyl)-3-(trifluoromethyl)-6,7,7a, 8, 10, 11-hexahydro-9H-pyrazino[1,2-d]pyrido[3,2-b][1, 4]oxazepane-9-yl)-3-oxypropoxy)prop-2-yl)amino)-4-(trifluoromethyl)pyridazin-3(2H)-one], the IC50 in the test on NCI-H1373 cells (setting [1]) fell in the range of 100 to 500 nM.
On the same count and under the same terms, to `CC(COCC(O)C(=O)N1CCN2c3ncc(C(F)(F)F)cc3CCC2C1)Nc1cn[nH]c(=O)c1C(F)(F)F` (centres unmarked) [Compound 67] belongs below 100 nM.
Consider `CC(COCC(O)C(=O)N1CCN2c3ncc(C(F)(F)F)cc3CCC2C1)Nc1cn[nH]c(=O)c1C(F)(F)F` (centres unmarked) [Compound 68], for which the IC50 with NCI-H1373 cells (setting [2]) is below 100 nM.
`C[C@@H](COCCC(=O)N1CCN2c3ncc(C(F)(F)F)cc3COC[C@H]2C1)Oc1cn[nH]c(=O)c1C(F)(F)F` [Compound 69, 5-(((S)-1-(3-oxo-3-((R)-3-(trifluoromethyl)-7a, 8, 10, 11-tetrahydro-5H-pyrazino[2,1-c]pyrido[2,3-e][1, 4]oxazepane-9(7H)-yl)propoxy)prop-2-yl)oxy)-4-(trifluoromethyl)pyridazin-3(2H)-one]: the IC50 in the test with NCI-H1373 cells (setting [1]) is below 100 nM.
Compound `C[C@@H](COCCC(=O)N1CCN2c3ncc(C(F)(F)F)cc3NC(C)(C)[C@H]2C1)Nc1cn[nH]c(=O)c1C(F)(F)F` [Compound 76] showed a 50% inhibitory concentration (IC50) on PARP7 below 0.01 µM.
